Test results: publication PMC7150767, “Monocarboxylate Transporter 6-Mediated Interactions with Prostaglandin F2α: In Vitro and In Vivo Evidence Utilizing a Knockout Mouse Model” (Pharmaceutics, 2020)

Legend:
[1] = target: T1, human monocarboxylate transporter 6 (hMCT6) (Homo sapiens, UniProt O15375); experiment: cis-inhibition of [3H]PGF2α uptake in oocytes at […]; format: cell-based; conditions: read-out: % inhibition at 10 μM (range over the PGs)
T1 construct: gene SLC16A5
T1 sequence (O15375 1-505): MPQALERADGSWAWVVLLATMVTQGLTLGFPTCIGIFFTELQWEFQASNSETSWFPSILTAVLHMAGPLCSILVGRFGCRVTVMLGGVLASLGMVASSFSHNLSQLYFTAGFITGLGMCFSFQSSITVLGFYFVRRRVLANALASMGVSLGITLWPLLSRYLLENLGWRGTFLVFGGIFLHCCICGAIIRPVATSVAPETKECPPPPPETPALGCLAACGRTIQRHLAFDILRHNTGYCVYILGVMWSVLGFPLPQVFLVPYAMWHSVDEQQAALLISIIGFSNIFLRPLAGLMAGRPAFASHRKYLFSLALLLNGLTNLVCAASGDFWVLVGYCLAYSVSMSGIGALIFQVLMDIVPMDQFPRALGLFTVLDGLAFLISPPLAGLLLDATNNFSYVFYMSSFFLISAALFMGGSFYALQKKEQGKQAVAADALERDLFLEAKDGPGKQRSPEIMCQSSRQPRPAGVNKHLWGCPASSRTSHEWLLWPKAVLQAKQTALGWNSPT

[2] = target: T2, murine monocarboxylate transporter 6 (mMct6) (Mus musculus, UniProt G5E8K6); experiment: cis-inhibition of [3H]PGF2α uptake in oocytes, […] ([…] inhibition); format: cell-based
T2 construct: gene Slc16a5; full-length, untagged, cRNA in Xenopus laevis oocytes
T2 sequence (G5E8K6 1-468): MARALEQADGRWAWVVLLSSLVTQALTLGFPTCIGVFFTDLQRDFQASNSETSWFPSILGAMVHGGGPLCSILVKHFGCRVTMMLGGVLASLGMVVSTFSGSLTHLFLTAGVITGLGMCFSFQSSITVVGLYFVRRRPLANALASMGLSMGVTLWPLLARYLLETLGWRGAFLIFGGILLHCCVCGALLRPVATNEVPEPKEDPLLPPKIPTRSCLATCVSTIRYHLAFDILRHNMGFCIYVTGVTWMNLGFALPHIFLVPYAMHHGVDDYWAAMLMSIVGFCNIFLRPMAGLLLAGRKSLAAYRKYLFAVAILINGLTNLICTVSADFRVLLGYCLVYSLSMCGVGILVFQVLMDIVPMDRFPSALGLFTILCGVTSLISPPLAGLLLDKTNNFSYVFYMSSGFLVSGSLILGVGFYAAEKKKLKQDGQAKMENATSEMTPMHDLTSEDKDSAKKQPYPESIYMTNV

[3] = target: T1, human monocarboxylate transporter 6 (hMCT6); experiment: cis-inhibition of [3H]PGF2α uptake in oocytes; format: cell-based
[4] = target: T2, murine monocarboxylate transporter 6 (mMct6); experiment: cis-inhibition of [3H]PGF2α uptake in oocytes, […] ([…] inhibition); format: cell-based; remark: listed apart in the source
[5] = substrate: CCCCC[C@H](O)/C=C/[C@@H]1[C@@H](C/C=C\CCCC(=O)O)[C@@H](O)C[C@H]1O; experiment: cells, lysate or membranes; format: cell-based, Mus musculus; conditions: pH 7.4
[6] = substrate: CCCCC[C@H](O)/C=C/[C@@H]1[C@@H](C/C=C\CCCC(=O)O)[C@@H](O)C[C@H]1O; experiment: cells, lysate or membranes; format: cell-based, Homo sapiens; conditions: pH 7.4

Molecule: CCCCC[C@H](O)/C=C/[C@@H]1[C@@H](CC(=O)CCCCC(=O)O)[C@@H](O)C[C@H]1O [6-keto prostaglandin F1α]
- inhibition at 10 µM [1]: 51 to 74%

Molecule: CCCCNc1cc(C(=O)O)cc(S(N)(=O)=O)c1Oc1ccccc1 [bumetanide]
- inhibition at 10 µM [2]: ~28%
- cis-inhibition of [3H]PGF2α uptake in oocytes [3]: Bumetanide and probenecid also inhibited human MCT6-mediated PGF2α uptake

Molecule: CCCN(CCC)S(=O)(=O)c1ccc(C(=O)O)cc1 [probenecid]
- inhibition at 500 µM [4]: ~94%
- cis-inhibition of [3H]PGF2α uptake in oocytes [3]: Bumetanide and probenecid also inhibited human MCT6-mediated PGF2α uptake

Molecule: CCCCC[C@H](O)/C=C/[C@H]1C(=O)C[C@H](O)[C@@H]1C/C=C\CCCC(=O)O [prostaglandin D2]
- inhibition at 10 µM [1]: 51 to 74%

Molecule: CCCCC[C@H](O)/C=C/[C@H]1[C@H](O)CC(=O)[C@@H]1C/C=C\CCCC(=O)O [prostaglandin E2]
- inhibition at 10 µM [1]: 51 to 74%

B1: murine monocarboxylate transporter 6 (mMct6) (Mus musculus) (protein)
chain: T2 sequence (G5E8K6 1-468)
notes: full-length, untagged, cRNA (NM_001080934.1) in Xenopus laevis oocytes
- Km [5]: 40.1 µM

B2: human monocarboxylate transporter 6 (hMCT6) (Homo sapiens) (protein)
chain: T1 sequence (O15375 1-505)
notes: pGH19-hMCT6 cRNA in Xenopus laevis oocytes
- Km [6]: 246 µM
